Measured values published in US9120749B2, “Quinoline derivatives and MELK inhibitors containing the same” (ONCOTHERAPY SCIENCE, INC., priority 2010, dated 2015).
Structures can show the parent of a compound that is named as a salt. Where two headings read alike, the source gives them in different places.

Legend:
22Rv1 cells = assay: Cell-based assay: anti-proliferative activity, Cell Counting Kit-8, 72 hours (22Rv1)
A549 cells = assay: Cell-based assay: anti-proliferative activity, Cell Counting Kit-8, 72 hours (A549); conditions: 72 hours
Procedure, shortened: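 A549 cells were seeded in 96-well plates and exposed to candidate inhibitors for 72 hours. Cell growth was then measured with Cell Counting Kit-8, and IC50 values were calculated from the resulting growth data.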

MELK = MELK (Homo sapiens, UniProt Q14680); assay: Kinase assay: MELK activity, phosphorylation of FITC-labeled histone H3 peptide measured by IMAP fluorescence polarization; assay type: biochemical; conditions: read-out: IC50 (μM) (kinase assay)
Sequence of MELK (Q14680 whole entry, looked up): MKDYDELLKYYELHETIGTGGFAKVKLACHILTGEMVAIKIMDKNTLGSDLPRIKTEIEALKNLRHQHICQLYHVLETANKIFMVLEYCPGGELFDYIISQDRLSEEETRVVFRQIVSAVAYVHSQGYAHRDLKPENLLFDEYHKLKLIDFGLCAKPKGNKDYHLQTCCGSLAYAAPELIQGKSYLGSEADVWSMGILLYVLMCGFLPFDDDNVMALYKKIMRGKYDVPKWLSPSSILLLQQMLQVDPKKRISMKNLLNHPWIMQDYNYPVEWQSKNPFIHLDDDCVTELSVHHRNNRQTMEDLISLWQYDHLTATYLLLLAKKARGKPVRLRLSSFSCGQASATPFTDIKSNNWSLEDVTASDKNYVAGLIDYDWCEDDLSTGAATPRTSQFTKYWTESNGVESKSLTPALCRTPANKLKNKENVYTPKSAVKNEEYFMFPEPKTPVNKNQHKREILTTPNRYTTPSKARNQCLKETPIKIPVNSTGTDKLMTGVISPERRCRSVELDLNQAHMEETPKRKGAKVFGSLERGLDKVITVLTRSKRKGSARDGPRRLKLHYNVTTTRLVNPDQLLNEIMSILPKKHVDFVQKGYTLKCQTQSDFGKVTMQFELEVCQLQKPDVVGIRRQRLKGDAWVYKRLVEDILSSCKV
Procedure, shortened: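 Fluorescence polarization was measured 0.5 h (room temperature) after quenching with threefold volume of progressive binding solution. Test compounds from 12.5 mM DMSO stocks were assayed at 1% DMSO.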

T47D cells = assay: Cell-based assay: anti-proliferative activity, Cell Counting Kit-8, 72 hours (T47D)
Procedure, shortened: (§1)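 Proliferation read with Cell Counting Kit-8 after 72 hours of inhibitor treatment, from seeding of 2,000–3,000 cells/well. Lines: T47D, A549, BT-549; HT-1197, lacking MELK by western blot, served as negative control. IC50 derived.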

DU4475 cells = assay: Cell-based assay: anti-proliferative activity, Cell Counting Kit-8, 72 hours (DU4475)
HT-1197 cells = assay: Cell-based assay: anti-proliferative activity, Cell Counting Kit-8, 72 hours (HT-1197, negative control without MELK expression); conditions: HT1197 cells (negative control, no MELK expression), 72 hours
Procedure, shortened: as §1

[1] = MELK kinase assay, IMAP fluorescence polarization, 50 micro-M ATP

Structure (SMILES)	IC50 (22Rv1 cells; Homo sapiens, 22Rv1, 72 h)	IC50 (A549 cells; Homo sapiens, A549, 72 h)	IC50 (MELK; [1])	IC50 (T47D cells; Homo sapiens, T47D, 72 h)	IC50 (DU4475 cells; Homo sapiens, DU-4475, 72 h)	IC50 (HT-1197 cells; Homo sapiens, HT1197, 72 h)	IC50 (MELK)	IC50 (22Rv1 cells; hydrochloride)	IC50 (A549 cells; hydrochloride)	IC50 (MELK; hydrochloride)	IC50 (T47D cells; 72 hours, hydrochloride)	IC50 (DU4475 cells; hydrochloride)	IC50 (HT-1197 cells; hydrochloride)
CC(=O)c1cnc2ccc(-c3cc(F)c(O)c(Cl)c3)cc2c1N[C@H]1CCC[C@@H](CN2CCN(C)CC2)C1 [Example 832, 1-(6-(3-chloro-5-fluoro-4-hydroxyphenyl)-4-((1S,3R)-3-((4-methylpiperazin-1-yl)methyl)cyclohexylamino)quinolin-3-yl)ethanone hydrochloride]	0.44 µM	0.26 µM	0.009 µM	0.17 µM	0.24 µM	0.79 µM	–	–	–	–	–	–	–
CC(=O)c1cnc2ccc(-c3cc(Cl)c(O)c(Cl)c3)cc2c1Nc1cccc(CCN2CCN(C)CC2)c1 [Example 831, 1-(6-(3,5-dichloro-4-hydroxyphenyl)-4-(3-(2-(4-methylpiperazin-1-yl)ethyl)phenylamino)quinolin-3-yl)ethanone]	0.83 µM	0.32 µM	0.0054 µM	1.1 µM	0.12 µM	11 µM	–	–	–	–	–	–	–
CC(=O)c1cnc2ccc(-c3cc(Cl)c(O)c(Cl)c3)cc2c1N[C@H]1C[C@H](CN(C)C)C1 [Example 784, 1-(6-(3,5-dichloro-4-hydroxyphenyl)-4-((1r,3r)-3-((dimethylamino)methyl)cyclobutylamino)quinolin-3-yl)ethanone]	0.95 µM	0.74 µM	–	0.6 µM	0.2 µM	3.2 µM	0.0031 µM	–	–	–	–	–	–
CC(=O)c1cnc2ccc(-c3cc(F)c(O)c(Cl)c3)cc2c1Nc1ccc(OCCN(C)C)nc1 [Example 848, 1-(6-(3-chloro-5-fluoro-4-hydroxyphenyl)-4-(6-(2-(dimethylamino)ethoxy)pyridin-3-ylamino)quinolin-3-yl)ethanone hydrochloride]	0.44 µM	0.29 µM	0.011 µM	0.14 µM	0.16 µM	5.3 µM	–	–	–	–	–	–	–
CC(=O)c1cnc2ccc(-c3cc(F)c(O)c(Cl)c3)cc2c1Nc1ccc(N2CCC(N(C)C)C2)nc1 (stereo not drawn) [Example 853, 1-(6-(3-chloro-5-fluoro-4-hydroxyphenyl)-4-((6-(3-(dimethylamino)pyrrolidin-1-yl)pyridin-3-yl)amino)quinolin-3-yl)ethanone]	0.65 µM	0.45 µM	0.018 µM	0.2 µM	0.38 µM	10 µM	–	–	–	–	–	–	–
CC(=O)c1cnc2ccc(-c3cc(Cl)c(O)c(Cl)c3)cc2c1NC1CCCN(CCN(C)C)C1 (stereo not drawn) [Example 850, 1-(6-(3,5-dichloro-4-hydroxyphenyl)-4-(1-(2-(dimethylamino)ethyl)piperidin-3-ylamino)quinolin-3-yl)ethanone]	1.2 µM	0.89 µM	0.0019 µM	1.1 µM	0.32 µM	4 µM	–	–	–	–	–	–	–
COc1cc(-c2ccc3ncc(C(C)=O)c(Nc4ccc(N5CCC(N)C5)nc4)c3c2)cc(Cl)c1O (stereo not drawn) [Example 774, 1-(4-(6-(3-aminopyrrolidin-1-yl)pyridin-3-ylamino)-6-(3-chloro-4-hydroxy-5-methoxyphenyl)quinolin-3-yl)ethanone]	0.082 µM	0.045 µM	–	0.034 µM	0.056 µM	0.71 µM	0.0019 µM	–	–	–	–	–	–
CC(=O)c1cnc2ccc(-c3cc(Cl)c(O)c(Cl)c3)cc2c1N[C@H]1CC[C@H](N(C)C)CC1 [Example 766, 1-(6-(3,5-dichloro-4-hydroxyphenyl)-4-(trans-4-(dimethylamino)cyclohexylamino)quinolin-3-yl)ethanone hydrochloride]	–	–	–	–	–	–	–	0.1 µM	0.14 µM	0.0017 µM	0.074 µM	0.06 µM	1 µM
CN(C)CCc1cccc(Nc2c(C(=O)C3CC3)cnc3ccc(-c4cc(F)c(O)c(F)c4)cc23)c1 [Example 796, cyclopropyl(6-(3,5-difluoro-4-hydroxyphenyl)-4-(3-(2-(dimethylamino)ethyl)phenylamino)quinolin-3-yl)methanone]	0.52 µM	0.14 µM	–	0.43 µM	0.14 µM	0.67 µM	0.026 µM	–	–	–	–	–	–
